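Interpolation was linear, between the two tested concentrations surrounding the appropriate level; five concentrations were tested over 48 hours in 96-well plates. The concentration for full growth arrest is given as TGI.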

Test systems include NCI-H460 lung; HCT-116 colon; LOX IMVI melanoma; SW-620 colon; KM12 colon; SF-268 CNS; CAKI-1 renal; HT29 colon; OVCAR-4 ovarian; SK-OV-3 ovarian; SN12C renal; UO-31 renal; NCI-H226 lung; SF-295 CNS; SK-MEL-5 melanoma; SNB-75 CNS; UACC-62 melanoma; OVCAR-8 ovarian; CCRF-CEM leukemia; HOP-92 NSCLC.
Assay in all cases: NCI anticancer screen, dose series, 48 h

For `CCN(CC)CCN(C(=O)c1ccc(F)cc1)c1ccccc1N`, the TGI in the experiment on NCI-H460 lung, in the experiment with HCT-116 colon, with LOX IMVI melanoma, in the experiment on SW-620 colon, in the experiment on KM12 colon and with SF-268 CNS was above 10 µM throughout. The TGI with CAKI-1 renal, in the experiment on HT29 colon, with OVCAR-4 ovarian, in the experiment on SK-OV-3 ovarian, with SN12C renal and with UO-31 renal was above 10 µM in each case. The TGI with NCI-H226 lung, with SF-295 CNS, in the experiment on SK-MEL-5 melanoma, with SNB-75 CNS, with UACC-62 melanoma and in the experiment on OVCAR-8 ovarian was above 10 µM each time. This molecule also returned a TGI in the experiment with CCRF-CEM leukemia above 10 µM.
Turning to `CNCCC=C1c2ccccc2CCc2ccccc21`, the TGI came to 28.5 µM with NCI-H460 lung; 27.8 µM in the experiment on HCT-116 colon; 26.7 µM in the experiment with LOX IMVI melanoma; 34.6 µM in the experiment with SW-620 colon; 28.8 µM in the experiment with HOP-92 NSCLC; 29.6 µM with KM12 colon. The TGI in the experiment on SF-268 CNS came out at 29.6 µM; with CAKI-1 renal it was 27.7 µM; in the experiment with HT29 colon it was 16.1 µM; in the experiment on OVCAR-4 ovarian, 28.6 µM; with SK-OV-3 ovarian it was 25.2 µM; in the experiment with SN12C renal, 29.2 µM. The TGI worked out at 18.2 µM in the experiment on UO-31 renal; 38 µM in the experiment on NCI-H226 lung; 27.8 µM in the experiment on SF-295 CNS; 25.5 µM in the experiment with SK-MEL-5 melanoma; 21.6 µM with SNB-75 CNS; 28.3 µM in the experiment with UACC-62 melanoma. Besides, the TGI in the experiment with OVCAR-8 ovarian worked out at 31.7 µM; with CCRF-CEM leukemia, 29.3 µM.
`COc1cc2oc(=O)ccc2cc1CC=C(C)C`: the TGI in the experiment with NCI-H460 lung was above 100 µM; in the experiment with HCT-116 colon, above 100 µM; in the experiment with LOX IMVI melanoma, above 100 µM; in the experiment with SW-620 colon, above 100 µM; in the experiment on HOP-92 NSCLC, 69 µM; in the experiment on KM12 colon it was above 100 µM. Also, the TGI in the experiment with SF-268 CNS was above 100 µM; in the experiment on CAKI-1 renal it was above 100 µM; in the experiment with HT29 colon, 77.7 µM; in the experiment on OVCAR-4 ovarian, above 100 µM; in the experiment with SN12C renal it was above 100 µM; with UO-31 renal, 97.9 µM. The TGI was 98.6 µM in the experiment on NCI-H226 lung; above 100 µM with SF-295 CNS; 73.7 µM in the experiment on SK-MEL-5 melanoma; above 100 µM in the experiment on SNB-75 CNS; above 100 µM with OVCAR-8 ovarian; above 100 µM in the experiment with CCRF-CEM leukemia.
With `CN(C)CCN(C(=Nc1ccccc1)N1CCCC1)c1ccccc1`, the TGI in the experiment on NCI-H460 lung, in the experiment with HCT-116 colon, with LOX IMVI melanoma, in the experiment with SW-620 colon, in the experiment on HOP-92 NSCLC and in the experiment on KM12 colon was above 100 µM each time. For the same molecule, the TGI in the experiment with SF-268 CNS was above 100 µM; in the experiment on CAKI-1 renal, above 100 µM; in the experiment with HT29 colon, 92.4 µM; in the experiment on OVCAR-4 ovarian, above 100 µM; in the experiment on SK-OV-3 ovarian, above 100 µM; with SN12C renal, above 100 µM. Moreover, the TGI with UO-31 renal, with NCI-H226 lung, in the experiment on SF-295 CNS, in the experiment with SK-MEL-5 melanoma, with SNB-75 CNS and with UACC-62 melanoma was above 100 µM in each case. The TGI in the experiment with OVCAR-8 ovarian and in the experiment with CCRF-CEM leukemia was above 100 µM throughout.
`CN1C(=O)C2C=C3CCCCC3=CC2N(C)C1=O` (stereo not given): the TGI with NCI-H460 lung, with HCT-116 colon, with LOX IMVI melanoma, with SW-620 colon, in the experiment with HOP-92 NSCLC and in the experiment on KM12 colon was above 100 µM each time. Also, the TGI with SF-268 CNS, in the experiment on CAKI-1 renal, with HT29 colon, in the experiment on OVCAR-4 ovarian, with SK-OV-3 ovarian and in the experiment on SN12C renal was above 100 µM throughout. The TGI in the experiment with UO-31 renal, in the experiment on NCI-H226 lung, in the experiment on SF-295 CNS, with SK-MEL-5 melanoma, with SNB-75 CNS and in the experiment on UACC-62 melanoma was above 100 µM throughout. Further, the TGI in the experiment with OVCAR-8 ovarian and in the experiment with CCRF-CEM leukemia was above 100 µM throughout.
In the case of `COc1cc(C(=O)Nc2cc(C(N)=O)cc(OC)c2OC)cc(NC(=O)/C=C/c2ccccc2)c1OC`, the TGI in the experiment with NCI-H460 lung, in the experiment on SW-620 colon, with HOP-92 NSCLC, in the experiment with KM12 colon, in the experiment on HT29 colon and in the experiment with OVCAR-4 ovarian was above 100 µM throughout. Moreover, the TGI was above 100 µM with SK-OV-3 ovarian; 85.6 µM in the experiment with SN12C renal; above 100 µM in the experiment with UO-31 renal; above 100 µM with SF-295 CNS; 35.6 µM in the experiment on UACC-62 melanoma; above 100 µM with OVCAR-8 ovarian. The TGI in the experiment with CCRF-CEM leukemia was above 100 µM.
As to `CC(=O)NNc1nc(C)c(C(=O)NNC(=O)C(=O)Nc2c(C)cccc2C(C)(C)C)s1`, the TGI in the experiment on NCI-H460 lung, in the experiment with HCT-116 colon, in the experiment with LOX IMVI melanoma, in the experiment with SW-620 colon, in the experiment on HOP-92 NSCLC and with KM12 colon was above 100 µM throughout. Moreover, the TGI with SF-268 CNS, with CAKI-1 renal, with HT29 colon, in the experiment on OVCAR-4 ovarian, with SK-OV-3 ovarian and in the experiment with SN12C renal was above 100 µM each time. For the same molecule, the TGI with UO-31 renal, in the experiment on NCI-H226 lung, in the experiment on SF-295 CNS, with SK-MEL-5 melanoma, in the experiment with SNB-75 CNS and in the experiment with UACC-62 melanoma was above 100 µM in each case. Also, the figures for the TGI in the experiment on OVCAR-8 ovarian and in the experiment on CCRF-CEM leukemia were above 100 µM and 69.9 µM, respectively.
